{"source": "ChEMBL document CHEMBL2375273", "about": "“Design, synthesis and evaluation of tacrine-flurbiprofen-nitrate trihybrids as novel anti-Alzheimer's disease agents” (Bioorg Med Chem, 2013)", "key": {"Cholinesterase [1]": {"biological_target": "T1, Cholinesterase (Equus caballus, UniProt P81908)", "T1 sequence (P81908 whole entry)": "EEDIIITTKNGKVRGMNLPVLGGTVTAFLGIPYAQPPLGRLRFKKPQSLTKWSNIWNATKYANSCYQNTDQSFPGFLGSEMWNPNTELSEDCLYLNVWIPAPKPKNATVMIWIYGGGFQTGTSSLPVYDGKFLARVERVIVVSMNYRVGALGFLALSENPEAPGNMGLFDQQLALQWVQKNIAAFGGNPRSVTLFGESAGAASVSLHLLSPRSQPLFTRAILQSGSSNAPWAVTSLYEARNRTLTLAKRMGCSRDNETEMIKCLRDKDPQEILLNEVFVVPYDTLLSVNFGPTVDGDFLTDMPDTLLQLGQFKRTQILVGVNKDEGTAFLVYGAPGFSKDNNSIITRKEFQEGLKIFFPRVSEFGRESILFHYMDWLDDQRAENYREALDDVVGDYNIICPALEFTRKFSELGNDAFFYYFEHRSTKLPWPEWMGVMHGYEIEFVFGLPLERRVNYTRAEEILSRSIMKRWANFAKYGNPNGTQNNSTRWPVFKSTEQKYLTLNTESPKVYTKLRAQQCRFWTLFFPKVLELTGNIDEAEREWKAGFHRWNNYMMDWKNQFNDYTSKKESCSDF", "description": "Inhibition of equine serum BChE using acetylcholine as substrate preincubated for 5 mins prior to substrate addition measured after 2 mins by Ellman's method"}, "Acetylcholinesterase [2]": {"biological_target": "T2, Acetylcholinesterase (Electrophorus electricus, UniProt O42275)", "T2 sequence (O42275 whole entry)": "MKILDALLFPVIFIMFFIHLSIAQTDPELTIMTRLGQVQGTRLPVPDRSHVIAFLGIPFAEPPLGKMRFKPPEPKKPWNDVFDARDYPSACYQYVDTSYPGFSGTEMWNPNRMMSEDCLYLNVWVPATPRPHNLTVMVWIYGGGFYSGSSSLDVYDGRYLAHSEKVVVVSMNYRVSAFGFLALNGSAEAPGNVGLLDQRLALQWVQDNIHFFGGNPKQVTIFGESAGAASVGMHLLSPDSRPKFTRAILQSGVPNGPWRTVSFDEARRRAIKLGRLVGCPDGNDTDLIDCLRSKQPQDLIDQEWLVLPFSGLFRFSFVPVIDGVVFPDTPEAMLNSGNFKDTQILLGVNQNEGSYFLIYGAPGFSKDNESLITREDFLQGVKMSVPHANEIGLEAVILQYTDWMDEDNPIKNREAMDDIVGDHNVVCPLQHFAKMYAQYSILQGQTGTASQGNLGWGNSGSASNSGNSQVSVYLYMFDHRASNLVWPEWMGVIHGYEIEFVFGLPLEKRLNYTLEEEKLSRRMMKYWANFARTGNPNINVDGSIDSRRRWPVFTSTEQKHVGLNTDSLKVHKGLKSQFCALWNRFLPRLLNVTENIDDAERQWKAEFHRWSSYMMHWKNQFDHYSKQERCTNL", "description": "Inhibition of electric eel AChE using acetylcholine as substrate preincubated for 5 mins prior to substrate addition measured after 2 mins by Ellman's method"}, "Cholinesterase [3]": {"biological_target": "T1, Cholinesterase", "assay": "Competitive inhibition of equine serum BChE by Lineweaver Burk reciprocal plot analysis in presence of acetylcholine"}, "Acetylcholinesterase [4]": {"biological_target": "T2, Acetylcholinesterase", "assay": "Mixed-type inhibition of electric eel AChE by Lineweaver Burk reciprocal plot analysis in presence of acetylcholine"}, "[5]": {"conditions": "buffer, pH 7.4, 4 h", "description": "Chemical stability of the compound in phosphate buffer assessed as nitrite release after 4 hrs at pH 7.4 by Griess method"}, "[6]": {"assay": "Cytotoxicity against Wistar rat primary cortical neurons at 1 uM after 24 hrs by MTT assay", "format": "cell-based", "conditions": "cerebral cortex neuron"}}, "data": [{"smiles": "CC(C(=O)NCCCCCCNc1c2c(nc3ccccc13)CCCC2)c1ccc(-c2ccccc2)c(F)c1", "note": "(configuration not stated)", "values": [{"measurement": "IC50", "setting": "Cholinesterase [1]", "result": 3.7, "unit": "nM"}, {"measurement": "IC50", "setting": "Acetylcholinesterase [2]", "result": 19.3, "unit": "nM"}]}, {"smiles": "CC(C(=O)NCCCCCCCCNc1c2c(nc3ccccc13)CCCC2)c1ccc(-c2ccccc2)c(F)c1", "note": "(configuration not stated)", "values": [{"measurement": "IC50", "setting": "Cholinesterase [1]", "result": 2.1, "unit": "nM"}, {"measurement": "IC50", "setting": "Acetylcholinesterase [2]", "result": 34.5, "unit": "nM"}]}, {"smiles": "CC(C(=O)NCCCCCCNc1c2c(nc3ccccc13)CCCC2)c1ccc(-c2ccc(OCCO[N+](=O)[O-])cc2)c(F)c1", "note": "(configuration not stated)", "values": [{"measurement": "Ki", "setting": "Cholinesterase [3]", "result": 1.7, "unit": "nM"}, {"measurement": "Ki", "setting": "Acetylcholinesterase [4]", "result": 16.1, "unit": "nM"}, {"measurement": "IC50", "setting": "Cholinesterase [1]", "result": 2.5, "unit": "nM"}, {"measurement": "IC50", "setting": "Acetylcholinesterase [2]", "result": 9.1, "unit": "nM"}, {"measurement": "Drug metabolism", "setting": "[5]", "result": 0.348, "unit": "µg/mL"}]}, {"smiles": "CC(C(=O)NCCCCCCNc1c2c(nc3ccccc13)CCCC2)c1ccc(-c2ccc(OCCCO[N+](=O)[O-])cc2)c(F)c1", "note": "(configuration not stated)", "values": [{"measurement": "IC50", "setting": "Cholinesterase [1]", "result": 2.4, "unit": "nM"}, {"measurement": "IC50", "setting": "Acetylcholinesterase [2]", "result": 18.7, "unit": "nM"}, {"measurement": "Drug metabolism", "setting": "[5]", "result": 0.353, "unit": "µg/mL"}]}, {"smiles": "CC(C(=O)NCCCCCCNc1c2c(nc3ccccc13)CCCC2)c1ccc(-c2ccc(OCCCCO[N+](=O)[O-])cc2)c(F)c1", "note": "(configuration not stated)", "values": [{"measurement": "IC50", "setting": "Cholinesterase [1]", "result": 1.3, "unit": "nM"}, {"measurement": "IC50", "setting": "Acetylcholinesterase [2]", "result": 27.4, "unit": "nM"}, {"measurement": "Drug metabolism", "setting": "[5]", "result": 0.36, "unit": "µg/mL"}]}, {"smiles": "CC(C(=O)NCCCCCCNc1c2c(nc3ccccc13)CCCC2)c1ccc(-c2ccc(OCCCCCCO[N+](=O)[O-])cc2)c(F)c1", "note": "(configuration not stated)", "values": [{"measurement": "Activity", "setting": "[6]", "result": "Non-toxic"}, {"measurement": "IC50", "setting": "Cholinesterase [1]", "result": 0.6, "unit": "nM"}, {"measurement": "IC50", "setting": "Acetylcholinesterase [2]", "result": 31.1, "unit": "nM"}, {"measurement": "Drug metabolism", "setting": "[5]", "result": 0.283, "unit": "µg/mL"}]}, {"smiles": "CC(C(=O)NCCCCCCCCNc1c2c(nc3ccccc13)CCCC2)c1ccc(-c2ccc(OCCO[N+](=O)[O-])cc2)c(F)c1", "note": "(configuration not stated)", "values": [{"measurement": "IC50", "setting": "Cholinesterase [1]", "result": 1, "unit": "nM"}, {"measurement": "IC50", "setting": "Acetylcholinesterase [2]", "result": 12.5, "unit": "nM"}, {"measurement": "Drug metabolism", "setting": "[5]", "result": 0.565, "unit": "µg/mL"}]}, {"smiles": "CC(C(=O)NCCCCCCCCNc1c2c(nc3ccccc13)CCCC2)c1ccc(-c2ccc(OCCCO[N+](=O)[O-])cc2)c(F)c1", "note": "(configuration not stated)", "values": [{"measurement": "IC50", "setting": "Cholinesterase [1]", "result": 1.6, "unit": "nM"}, {"measurement": "IC50", "setting": "Acetylcholinesterase [2]", "result": 30.6, "unit": "nM"}, {"measurement": "Drug metabolism", "setting": "[5]", "result": 0.353, "unit": "µg/mL"}]}, {"smiles": "CC(C(=O)NCCCCCCCCNc1c2c(nc3ccccc13)CCCC2)c1ccc(-c2ccc(OCCCCO[N+](=O)[O-])cc2)c(F)c1", "note": "(configuration not stated)", "values": [{"measurement": "IC50", "setting": "Cholinesterase [1]", "result": 1.3, "unit": "nM"}, {"measurement": "IC50", "setting": "Acetylcholinesterase [2]", "result": 70.9, "unit": "nM"}, {"measurement": "Drug metabolism", "setting": "[5]", "result": 0.36, "unit": "µg/mL"}]}, {"smiles": "CC(C(=O)NCCCCCCCCNc1c2c(nc3ccccc13)CCCC2)c1ccc(-c2ccc(OCCCCCCO[N+](=O)[O-])cc2)c(F)c1", "note": "(configuration not stated)", "values": [{"measurement": "IC50", "setting": "Cholinesterase [1]", "result": 1.5, "unit": "nM"}, {"measurement": "IC50", "setting": "Acetylcholinesterase [2]", "result": 226, "unit": "nM"}, {"measurement": "Drug metabolism", "setting": "[5]", "result": 0.34, "unit": "µg/mL"}]}, {"smiles": "O=[N+]([O-])O[C@@H]1CO[C@H]2[C@@H]1OC[C@@H]2O", "note": "[ISOSORBIDE MONONITRATE]", "values": [{"measurement": "Drug metabolism", "setting": "[5]", "result": 0.412, "unit": "µg/mL"}]}]}
